# Columns and labels:
# OCT1 and/or OCT2 = test system: OCT1 and/or OCT2; design: method as in PMID 20477935; settings: cited from earlier work
# [1] = test system: primary human brain microvascular endothelial cells (BMVECs)
# Description: BMVECs were obtained from isolated human brain microvessels and cultured in petri dishes in the presence of puromycin (P0), to avoid contamination from other cell types. BMVECs were later used in astrocyte-conditioned culture media for protein extraction, or for the establishment of a human BBB model to conduct permeability assays.
# After BMVECs amplification, cells were seeded on inserts (Transwell, Corning, ThermoFisher, Les Ulis, France). […] Permeability studies using radiolabeled [^3H]-L-Phenylalanine (~4 nM) or [^3H]-MPP^+ (~6 nM) were performed on BMVECs once the establishment of a good BBB model was verified.
# BBB = settings: cited from earlier work
# Description for luminal BBB: Transport of [^3H]-MPP^+ at the luminal BBB was measured by in situ brain perfusion in mice and rats [22, 23, 24]. […] With this method, the vascular composition of the brain is totally substituted by an artificial fluid, whose constitution can be modified. Mice and rats were anesthetized with ketamine-xylazine mixture 140–8 mg kg^−1 and 80-10 mg kg^−1, respectively. A catheter was inserted into the right carotid artery after ligation of the appropriate vessels. Just before perfusion, the heart was cut. Perfusion started immediately at a constant flow rate of 2.5 mL min^−1, and 10 mL min^−1, in mouse and rat, respectively.
# The fluid pH (pHe) was checked and adjusted with a digital pH-meter (± 0.05 pH-units) immediately before perfusion. […] The perfusion was terminated by decapitating the animal after 120 s. […]
# The apparent tissue distribution volume (Vtissue, µL g^−1) was calculated as (Equation (2)): (2) Vtissue=Vtissue/Cperf where Xtissue (dpm g^−1) is the calculated brain amount of [^3H]-MPP^+ and Cperf (dpm µL^−1), its concentration in the perfusion fluid (Equation (3)): (3) Xtissue=Xtot−VvCperf where Xtot (dpm g^−1) is the total quantity of [^3H]-MPP^+ measured in the sample tissue.
# The initial transport rate, also called brain clearance, expressed as a Kin (µL s^−1 g^−1), was calculated from (Equation (4)): (4) Kin=Vtissue/T where T is the perfusion time (s).
compound,measurement,setting,value
"CN1CC=C(c2ccccc2)CC1 [MPTP, 1-methyl-4-phenyl-1,2,3,6-tetrahydropyridine]",share of MPTP brain uptake accounted for by OCT1 and/or OCT2,OCT1 and/or OCT2,more than 90%
"CC[N+](CC)(CC)CC [TEA, Tetraethylammonium]","effect of inhibitor on [3H]-MPP+ uptake, apical to basolateral","[1]; TEA 2 mM, [3H]-MPP+ ~6 nM, OCT1-3/MATE function",did not produce any significant decrease
same,effect of co-perfused inhibitor on [3H]-MPP+ brain extraction/clearance,"luminal BBB; TEA 30 mM co-perfusion, all rat and mouse strains tested",remained unaltered
same,modification of [14C]-TEA brain transport,BBB; FVB Oct1−/− mice,no modification
"C[n+]1ccc(-c2ccccc2)cc1 [[^3H]-MPP^+, 1-methyl-4-phenylpyridinium]",differences in basal [3H]-MPP+ brain transport between the selected mouse strains,"luminal BBB; 2-month old mice, six strains",not evidenced
same,modification of [3H]-MPP+ brain transport,"BBB; FVB (wild-type, Oct1/2−/−, Oct3−/−) and Swiss mice (+/- TEA)",no modification
N[C@@H](Cc1c[nH]c2ccccc12)C(=O)O [tryptophan],"effect of inhibitor on [3H]-L-phenylalanine uptake, apical to basolateral (SLC7A5)","[1]; tryptophan 5 mM, [3H]-L-phenylalanine ~4 nM, n = 3, p < 0.05",significant decrease
